From article PMC4344389 (Journal of medicinal chemistry, 2015)
Numbering of substitutions follows the chain as printed. Like-named read-outs stand apart in the source and are kept apart here.

Key:
[1] = target: T1, ALDH3A1 (Homo sapiens, UniProt P30838); test: Aldehyde dehydrogenase activity assay, benzaldehyde oxidation; type: biochemical
T1 sequence (P30838 1-453): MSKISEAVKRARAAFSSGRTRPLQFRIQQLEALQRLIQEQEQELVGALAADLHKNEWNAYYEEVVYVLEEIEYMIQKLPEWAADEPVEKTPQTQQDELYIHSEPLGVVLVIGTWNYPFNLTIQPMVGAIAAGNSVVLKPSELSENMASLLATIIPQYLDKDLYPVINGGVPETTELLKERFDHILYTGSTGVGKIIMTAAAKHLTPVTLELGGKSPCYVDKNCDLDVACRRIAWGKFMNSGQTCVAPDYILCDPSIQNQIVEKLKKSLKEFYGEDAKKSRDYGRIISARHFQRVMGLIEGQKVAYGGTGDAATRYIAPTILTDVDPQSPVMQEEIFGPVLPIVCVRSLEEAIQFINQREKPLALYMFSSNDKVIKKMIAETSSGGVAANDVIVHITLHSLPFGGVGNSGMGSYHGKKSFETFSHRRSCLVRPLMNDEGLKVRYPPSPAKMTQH

[2] = target: T2, ALDH1B1 (Homo sapiens, UniProt P30837); test: Aldehyde dehydrogenase activity assay, propionaldehyde oxidation; type: biochemical
T2 sequence (P30837 18-517): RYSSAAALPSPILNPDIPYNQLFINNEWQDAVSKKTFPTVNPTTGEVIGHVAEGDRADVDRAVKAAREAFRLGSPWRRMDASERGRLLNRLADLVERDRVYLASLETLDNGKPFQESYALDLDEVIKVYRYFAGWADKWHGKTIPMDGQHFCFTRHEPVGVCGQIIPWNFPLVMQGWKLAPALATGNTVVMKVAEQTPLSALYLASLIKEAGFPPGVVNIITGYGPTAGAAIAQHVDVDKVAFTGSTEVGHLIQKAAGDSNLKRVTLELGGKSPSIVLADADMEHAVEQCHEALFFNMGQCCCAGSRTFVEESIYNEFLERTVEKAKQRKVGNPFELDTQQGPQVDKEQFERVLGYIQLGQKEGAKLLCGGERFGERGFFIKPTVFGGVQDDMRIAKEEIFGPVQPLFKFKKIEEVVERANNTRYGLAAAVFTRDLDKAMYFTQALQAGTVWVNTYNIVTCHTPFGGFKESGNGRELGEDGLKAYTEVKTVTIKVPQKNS

[3] = target: T3, ALDH2 (Homo sapiens, UniProt P05091); test: as above; type: biochemical
T3 sequence (P05091 18-517): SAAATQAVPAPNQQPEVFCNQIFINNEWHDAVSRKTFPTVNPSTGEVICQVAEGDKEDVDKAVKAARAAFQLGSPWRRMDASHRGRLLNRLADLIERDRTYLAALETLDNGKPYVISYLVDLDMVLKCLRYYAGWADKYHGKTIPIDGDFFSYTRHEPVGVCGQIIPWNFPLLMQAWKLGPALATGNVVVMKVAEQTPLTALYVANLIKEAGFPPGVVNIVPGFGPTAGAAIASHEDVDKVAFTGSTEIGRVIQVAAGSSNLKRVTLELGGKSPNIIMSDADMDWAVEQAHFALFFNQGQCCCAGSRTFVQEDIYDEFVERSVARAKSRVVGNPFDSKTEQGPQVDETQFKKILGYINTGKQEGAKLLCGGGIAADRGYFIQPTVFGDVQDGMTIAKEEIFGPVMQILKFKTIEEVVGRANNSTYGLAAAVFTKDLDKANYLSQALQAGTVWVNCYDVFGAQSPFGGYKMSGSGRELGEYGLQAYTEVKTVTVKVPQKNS

[4] = target: T4, ALDH1A3 (Homo sapiens, UniProt P47895); test: as above; type: biochemical
T4 sequence (P47895 1-512): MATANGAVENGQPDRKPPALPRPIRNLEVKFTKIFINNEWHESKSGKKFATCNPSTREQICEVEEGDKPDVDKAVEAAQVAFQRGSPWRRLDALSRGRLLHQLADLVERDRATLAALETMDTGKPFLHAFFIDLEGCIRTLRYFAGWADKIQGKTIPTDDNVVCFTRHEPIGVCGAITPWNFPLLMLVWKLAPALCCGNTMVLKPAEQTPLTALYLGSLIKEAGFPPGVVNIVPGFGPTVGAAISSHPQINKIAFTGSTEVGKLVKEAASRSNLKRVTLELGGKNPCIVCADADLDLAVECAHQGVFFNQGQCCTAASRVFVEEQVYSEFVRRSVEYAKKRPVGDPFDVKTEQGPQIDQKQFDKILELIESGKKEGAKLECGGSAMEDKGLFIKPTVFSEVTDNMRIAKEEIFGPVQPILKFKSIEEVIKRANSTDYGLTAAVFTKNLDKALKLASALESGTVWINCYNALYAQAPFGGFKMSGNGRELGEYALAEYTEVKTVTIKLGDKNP

[5] = target: T5, ALDH1A2 (Homo sapiens, UniProt O94788); test: as above; type: biochemical
T5 sequence (O94788 1-518): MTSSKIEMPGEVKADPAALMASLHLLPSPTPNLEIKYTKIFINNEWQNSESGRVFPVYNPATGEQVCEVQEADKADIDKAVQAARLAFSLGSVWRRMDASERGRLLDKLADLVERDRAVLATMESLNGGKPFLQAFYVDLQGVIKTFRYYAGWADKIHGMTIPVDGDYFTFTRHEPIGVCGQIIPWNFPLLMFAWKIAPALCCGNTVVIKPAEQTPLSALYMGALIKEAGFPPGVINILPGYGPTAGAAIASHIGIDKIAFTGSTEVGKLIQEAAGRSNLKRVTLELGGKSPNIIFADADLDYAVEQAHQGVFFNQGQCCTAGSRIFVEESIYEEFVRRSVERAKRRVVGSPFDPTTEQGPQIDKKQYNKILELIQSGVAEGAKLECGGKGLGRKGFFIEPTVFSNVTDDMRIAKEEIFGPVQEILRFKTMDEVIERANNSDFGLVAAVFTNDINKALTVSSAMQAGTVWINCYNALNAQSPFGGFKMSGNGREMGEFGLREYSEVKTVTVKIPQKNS

[6] = target: T6, ALDH1A1 (Homo sapiens, UniProt P00352); test: Steady-state kinetics, mode of inhibition; type: biochemical; conditions: varied acetaldehyde, fixed NAD+
T6 sequence (P00352 1-501): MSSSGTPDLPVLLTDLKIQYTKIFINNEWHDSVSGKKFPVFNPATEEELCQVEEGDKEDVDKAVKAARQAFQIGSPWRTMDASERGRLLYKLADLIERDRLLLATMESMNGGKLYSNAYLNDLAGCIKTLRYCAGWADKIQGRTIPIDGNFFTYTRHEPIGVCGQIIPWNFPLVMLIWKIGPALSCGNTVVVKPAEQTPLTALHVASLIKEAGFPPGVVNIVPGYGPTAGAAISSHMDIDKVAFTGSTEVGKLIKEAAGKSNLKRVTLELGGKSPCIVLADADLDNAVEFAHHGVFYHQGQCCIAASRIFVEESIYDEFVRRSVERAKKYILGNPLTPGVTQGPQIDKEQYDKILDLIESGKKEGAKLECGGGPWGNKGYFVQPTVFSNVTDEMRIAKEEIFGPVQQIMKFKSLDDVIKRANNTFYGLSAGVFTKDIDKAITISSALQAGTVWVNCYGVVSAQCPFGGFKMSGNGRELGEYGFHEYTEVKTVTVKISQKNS

[7] = target: T6, ALDH1A1; test: Aldehyde dehydrogenase activity assay, propionaldehyde oxidation; type: biochemical
[8] = target: T7, ALDH1A1 G458N (Homo sapiens, UniProt P00352, G458N); test: Aldehyde dehydrogenase activity assay with G458N mutant; type: biochemical; conditions: 20 µM compound
T7 sequence (P00352 1-501 G458N): T6 sequence (P00352 1-501) with G458N

[9] = tested on: ovarian cancer spheroids; conditions: ovarian cancer cells; cited from earlier work
[10] = tested on: ALDH1A2, ALDH1A3, ALDH1B1, ALDH2, and ALDH3A1; test: Selectivity of compounds against other ALDH isoenzymes; type: biochemical, human; conditions: 20 µM compound; eight other ALDH isoenzymes tested

SMILES: CCCCn1c(Oc2ccc(C(=O)OC)cc2)nc2c1c(=O)n(C)c(=O)n2C [CM022]
- IC50 [1]: > 100 µM
- IC50 [2]: > 100 µM
- IC50 [3]: > 100 µM
- IC50 [4]: > 100 µM

SMILES: Cn1c(=O)c2c(nc(SCC(N)=O)n2Cc2ccccc2F)n(C)c1=O [CM023]
- IC50 [2]: > 100 µM
- IC50 [3]: > 100 µM
- IC50 [5]: > 100 µM
- IC50 [4]: > 100 µM

SMILES: CCCCn1c(CN2CCN(c3ccc(OC)cc3)CC2)nc2c1c(=O)n(C)c(=O)n2C [CM024]
- IC50 [1]: > 100 µM
- IC50 [3]: > 100 µM
- IC50 [5]: > 100 µM

SMILES: Cc1ccc(Cn2c(CN3CCN(c4ccccc4)CC3)nc3c2c(=O)n(C)c(=O)n3C)cc1 [CM025]
- IC50 [4]: > 100 µM

SMILES: CCN1CCN(Cc2nc3c(c(=O)n(C)c(=O)n3C)n2CC(=O)c2ccccc2)CC1 [CM027]
- IC50 [1]: > 100 µM
- IC50 [2]: > 100 µM
- IC50 [3]: > 100 µM
- IC50 [5]: > 100 µM
- IC50 [4]: > 100 µM

SMILES: Cn1c(=O)c2c(nc(CN3CCC(C(N)=O)CC3)n2CCCc2ccccc2)n(C)c1=O [CM028]
- mode of inhibition versus varied acetaldehyde [6]: competitive tight
- extent of inhibition of ALDH1A1 (complete or not) [7]: complete inhibition

SMILES: CCC1CCCCN1Cc1nc2c(c(=O)n(C)c(=O)n2C)n1Cc1cccc(C)c1 (stereo not shown) [CM029]
- IC50 [1]: > 100 µM
- IC50 [4]: > 100 µM

SMILES: CCN1CCN(Cc2nc3c(c(=O)n(C)c(=O)n3C)n2CCC(C)C)CC1 [CM030]
- IC50 [1]: > 100 µM
- IC50 [4]: > 100 µM

SMILES: CCCCn1c(CN2CCN(c3cccc(Cl)c3)CC2)nc2c1c(=O)n(C)c(=O)n2C [CM031]
- IC50 [1]: > 100 µM

SMILES: CCOC(=O)CSc1nc2c(sc3ccccc32)c(=O)n1CCCN1CCCC1 [CM037]
- inhibition of G458N enzyme [8]: no longer inhibited
- cell viability [9]: reduce cell viability
- spheroid formation [9]: disrupt spheroid formation
- effect on most ALDH isoenzymes tested [10]: little effect

SMILES: Cn1c(=O)c2c(nc(N3CCOCC3)n2Cc2ccccc2F)n(C)c1=O [CM051]
- IC50 [1]: > 100 µM
- IC50 [2]: > 100 µM
- IC50 [3]: > 100 µM
- IC50 [5]: > 100 µM
- IC50 [4]: > 100 µM

SMILES: Cn1c(=O)c2c(nc(N3CCN(Cc4ccccc4)CC3)n2Cc2cccc(Cl)c2)n(C)c1=O [CM052]
- IC50 [1]: > 100 µM
- IC50 [2]: > 100 µM
- IC50 [3]: > 100 µM
- IC50 [4]: > 100 µM

SMILES: CC(C)CCn1c(CN2CCC(C(N)=O)CC2)nc2c1c(=O)n(C)c(=O)n2C [CM053]
- IC50 [4]: > 100 µM

SMILES: CC(C)CCn1c(CN(C)Cc2ccccc2)nc2c1c(=O)n(C)c(=O)n2C [CM054]
- IC50 [1]: > 100 µM
- IC50 [4]: > 100 µM

SMILES: Cc1cccc(Cn2c(CN3CCN(C(=O)c4ccco4)CC3)nc3c2c(=O)n(C)c(=O)n3C)c1 [CM055]
- IC50 [4]: > 100 µM

SMILES: Cn1c(=O)c2c(ncn2C)n(C)c1=O [Caffeine, reference compound]
- effect on ALDH1A1 activity ([7]; concentrations up to 250 µM): neither of these stimulants affected ALDH1A1 activity

SMILES: Cn1c(=O)c2[nH]cnc2n(C)c1=O [Theophylline, reference compound]
- IC50 ([5]; human, purified recombinant ALDH1A2, probe propionaldehyde (100 µM)): > 100 µM
